Measurements published in patent US6403626B1, “Benzimidazole derivatives” (Synaptic Pharmaceutical Corporation, priority 1994, dated 2002).

Columns and labels:
[1] = target: T1, α2B Human Adrenergic Receptor (Homo sapiens, UniProt P18089); assay: Equilibrium competition binding, [3H] rauwolscine, membranes of transfected Y-1 cells; conditions: cloned human receptor; [3H] rauwolscine; read-out: pKi Alpha-2 B (converted)
T1 construct: expressed in transfected cells; host or cells: Y-1 cells
T1 sequence (P18089 1-450): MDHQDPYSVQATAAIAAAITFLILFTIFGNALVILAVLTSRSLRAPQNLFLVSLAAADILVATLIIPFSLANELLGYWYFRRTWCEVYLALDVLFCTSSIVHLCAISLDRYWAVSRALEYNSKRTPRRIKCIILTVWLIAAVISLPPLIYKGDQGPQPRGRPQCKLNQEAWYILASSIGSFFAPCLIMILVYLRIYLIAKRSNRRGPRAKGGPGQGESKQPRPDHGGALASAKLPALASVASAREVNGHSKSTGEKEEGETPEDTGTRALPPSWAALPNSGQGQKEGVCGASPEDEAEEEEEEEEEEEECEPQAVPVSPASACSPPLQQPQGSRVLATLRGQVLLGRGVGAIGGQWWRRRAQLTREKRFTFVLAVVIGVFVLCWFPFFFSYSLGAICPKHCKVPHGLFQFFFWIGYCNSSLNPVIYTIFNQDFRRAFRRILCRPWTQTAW

[2] = target: T1, α2B Human Adrenergic Receptor; format: cell-based
Description: (§1) Binding and functional assays were performed using stably transfected human alpha adrenergic receptors. Equilibrium competition binding assays were performed with membrane preparations from cultured LM(tk-) cells stably transfected with the cloned human adrenoceptor subtypes except for α2b, which was expressed in Y-1 cells, using [^3H] prazosin for α1 receptors and [^3H] rauwolscine for α2 receptors.
Stable cell lines were selected as described above.
(§2) The agonist activity (expressed as pEC50) was measured as a function of the ability to inhibit the forskolin-stimulated synthesis of cyclic adenosine monophosphate (cAMP). The stably transfected cells were incubated in Ham's F10 with 5 mM theophylline, 10 mM HEPES, 10 μM pargyline, and/or appropriate concentrations of forskolin for 20 min at 37° C. in 5% CO2. The tested compounds were then added to a final concentration of 0.001 nM to 1 μM and incubated for an additional 15 min at 37° C. in 5% CO2. The medium was aspirated and the reaction was stopped by the addition of 100 mM HCl . […] The plates are stored at 4° C. for 15 min and assayed to determine the linear concentration of cAMP. The appropriate dilution is interpolated from the standard curve of cold cAMP. The assessment of cAMP formation is determined by radioimmunoassay (cAMP radioimmunoassay kit; Advanced Magnetics, Cambridge, Mass.). Radioactivity was quantified using a Packard COBRA Auto Gamma counter, equipped with data reduction software.

[3] = target: α2C Human Adrenergic Receptor (Homo sapiens, UniProt P18825); assay: Equilibrium competition binding, [3H] rauwolscine, membranes of transfected LM(tk-) cells
[4] = target: T2, α2C Human Adrenergic Receptor (Homo sapiens, UniProt P18825); format: cell-based; set-up: The entire coding region of α2C (1383 bp), including 2 bp of 5′ UT and 400 bp of 3′ UT; expressed in transfected cells; host or cells: LM(tk-) cells; conditions: functional cAMP assay
T2 sequence (P18825 1-462): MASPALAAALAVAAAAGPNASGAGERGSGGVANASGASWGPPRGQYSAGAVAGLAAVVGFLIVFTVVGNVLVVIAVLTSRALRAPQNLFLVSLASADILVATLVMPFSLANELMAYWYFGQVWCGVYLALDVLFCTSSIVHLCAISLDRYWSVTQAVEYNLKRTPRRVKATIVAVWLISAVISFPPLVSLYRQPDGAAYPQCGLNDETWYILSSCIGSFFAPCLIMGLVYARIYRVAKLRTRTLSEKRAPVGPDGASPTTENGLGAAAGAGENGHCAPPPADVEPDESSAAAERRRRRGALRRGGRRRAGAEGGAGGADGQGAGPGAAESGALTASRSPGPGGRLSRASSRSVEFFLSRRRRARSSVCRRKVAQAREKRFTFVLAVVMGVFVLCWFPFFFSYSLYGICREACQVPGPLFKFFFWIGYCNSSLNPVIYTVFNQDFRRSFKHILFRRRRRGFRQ
Description: as §1
The insert housing this coding region was an @ 1.8 kb Ncol/EcoRI human spleen genomic fragment which was end-blunted by either T4 polymerase or Klenow fragment of DNA polymerase. Stable cell lines were selected as described above.
as §2

rats = conditions: systematic administration, reversed by atipamazole or idazoxan; cited from earlier work

## Ic1cc(NC2=NCCN2)cc2[nH]cnc12 [Example 54, 7-Iodo-5-(2-imidazolin-2-ylamino)Benzimidazole]
[1]
  Ki: 27.5 nM
[2]; functional cAMP assay
  I.A Alpha-2 B: 0.60
[2]; inhibition of forskolin-stimulated cAMP, NA: Not Active, read-out: pEC50 Alpha-2 B (converted)
  EC50: 138 nM
[3]
  Ki: 200 nM
[4]
  I.A Alpha-2 C: 0.90

## Cc1cccc(C(C)c2cnc[nH]2)c1C (stereo not drawn) [Medetomidine]
rats
  antinociception: dose-dependent antinociception
